Measurements as given in paper PMC2889835 (PLoS ONE, 2010).
“Also recorded” adds a separate entry of the source. Read-outs that look alike come from different tables or passages of the source. Starred links: 1 amine or outer side, 2 acyl side, 3 side chain; linkers in the order of their positions; H or OH if unused. Positions of bridges follow the written chain, without caps; N, C: chain ends. Non-standard residues stand in square brackets, D forms with d. Residues, ends and D or L forms follow the SMILES beside them. Chains are numbered I, II in the order given. Actinocin(9to1) = Cc1c2oc3c(C)ccc(C(=O)[*:1])c3nc-2c(C(=O)[*:2])c(N)c1=O; NMeV = CN[C@H](C(=O)O)C(C)C; Sar = CNCC(=O)O

Tests used:
VSV-GFP or SeV-GFP [1] = assay type: cell-based, vesicular stomatitis virus; Sendai virus
RBV uptake = assay type: cell-based
SeV-GFP [2] = assay type: cell-based, Sendai virus
[3] = system: BHK21, BSRT7, HeLa, A549, 4T1, HEp2 and Vero cells
canine distemper virus = details: Vero cells; cited from earlier work
SeV-GFP [4] = assay: microbe, parasite or virus in culture; assay type: cell-based, Sendai virus; details: Respirovirus muris; for IC50: read-out: IC50 SeV-GFP; for IC90: read-out: IC90 SeV-GFP
[5] = system: BHK21, BSRT7, HeLa, A549, 4T1, HEp2 and Vero cells; assay: Cell viability assays (MTT, CellTiter-Glo, trypan blue dye exclusion); details: RBV up to 1000 µM, 24 h, all seven cell lines
VSV-GFP [6] = assay type: cell-based, vesicular stomatitis virus
VSV-GFP [7] = assay: microbe, parasite or virus in culture; assay type: cell-based; details: Vesicular stomatitis virus; for IC50: read-out: IC50 VSV-GFP; for IC90: read-out: IC90 VSV-GFP
[8] = system: Vero, HepG2, MDCK and other cell lines; details: cited from earlier work
VSV-GFP or SeV-GFP [9] = assay type: cell-based, vesicular stomatitis virus; Sendai virus; remark: listed apart in the source

Cc1c2oc3c(C)ccc(C(=O)N[C@@H]4C(=O)N[C@H](C(C)C)C(=O)N5CCC[C@H]5C(=O)N(C)CC(=O)N(C)[C@@H](C(C)C)C(=O)O[C@@H]4C)c3nc-2c(C(=O)N[C@@H]2C(=O)N[C@H](C(C)C)C(=O)N3CCC[C@H]3C(=O)N(C)CC(=O)N(C)[C@@H](C(C)C)C(=O)O[C@@H]2C)c(N)c1=O [ActD, actinomycin D] (I: T[dV]P[Sar][NMeV] / II: T[dV]P[Sar][NMeV]; ester I:1-I:C, II:1-II:C; linker I:N-II:N via Actinocin(9to1))
Effect on viral replication when used alone (VSV-GFP or SeV-GFP [1]): somewhat mild effect on viral replication
Neutralizing effect on antiviral activity of RBV (VSV-GFP or SeV-GFP [1]): clear neutralizing effect on RBV
Effect on RBV uptake (RBV uptake): did not inhibit RBV uptake

O=[N+]([O-])c1ccc(CSc2ncnc3c2ncn3[C@@H]2O[C@H](CO)[C@@H](O)[C@H]2O)cc1 [NBMPR, S-(4-Nitrobenzyl)-6-thioinosine]
Effect on RBV uptake (RBV uptake): RBV uptake was inhibited in most cell lines

NC(=O)c1ncn([C@@H]2O[C@H](CO)[C@@H](O)[C@H]2O)n1 [RBV, 1-ß-D-ribofuranosyl-1,2,4-triazole-3-carboxamide]
Effect on SeV replication compared with VSV (SeV-GFP [2]): inhibited SeV replication to a greater degree than VSV
Long-term accumulation of RBV [3]: markedly decreased levels of RBV accumulation
Short-term RBV uptake [3]: somewhat similar levels of RBV import
IC50 (canine distemper virus): 20 to 50 µM
IC80 (canine distemper virus): 40 to 110 µM
IC50 (SeV-GFP [4]; 4T1, 48 h): 10 µM
IC90 (SeV-GFP [4]; 4T1, 48 h): 18 µM
IC50 (SeV-GFP [4]; A549, 48 h): 90 µM
IC90 (SeV-GFP [4]; A549, 48 h): 320 µM
IC50 (SeV-GFP [4]; BHK-21, 48 h): 190 µM
IC90 (SeV-GFP [4]; BHK-21, 48 h): 850 µM
IC50 (SeV-GFP [4]; BSR-T7, 48 h): 16 µM
IC90 (SeV-GFP [4]; BSR-T7, 48 h): 40 µM
IC50 (SeV-GFP [4]; HEp-2, 48 h): 12 µM
IC90 (SeV-GFP [4]; HEp-2, 48 h): 45 µM
IC50 (SeV-GFP [4]; HeLa, 48 h): 40 µM
IC90 (SeV-GFP [4]; HeLa, 48 h): 110 µM
IC50 (SeV-GFP [4]; Vero, 48 h): 1550 µM
IC90 (SeV-GFP [4]; Vero, 48 h): > 3000 µM
Effect on cell viability (cellular toxicity) [5]: did not produce any statistically significant decrease in cell viability; also recorded: did not produce any significant cytotoxicity
Effect on VSV replication (GFP expression) (VSV-GFP [6]): effectively inhibited VSV
Effect on VSV-driven GFP expression (VSV-GFP [6]): surprisingly mild effect; also recorded: somewhat intermediate effect
IC50 (VSV-GFP [7]; 4T1, 24 h): 20 µM
IC90 (VSV-GFP [7]; 4T1, 24 h): 60 µM
IC50 (VSV-GFP [7]; A549, 24 h): 190 µM
IC90 (VSV-GFP [7]; A549, 24 h): 610 µM
IC50 (VSV-GFP [7]; BHK-21, 24 h): 275 µM
IC90 (VSV-GFP [7]; BHK-21, 24 h): 1100 µM
IC50 (VSV-GFP [7]; BSR-T7, 24 h): 10 µM
IC90 (VSV-GFP [7]; BSR-T7, 24 h): 40 µM
IC50 (VSV-GFP [7]; HEp-2, 24 h): 70 µM
IC90 (VSV-GFP [7]; HEp-2, 24 h): 310 µM
IC50 (VSV-GFP [7]; HeLa, 24 h): 70 µM
IC90 (VSV-GFP [7]; HeLa, 24 h): 150 µM
IC50 (VSV-GFP [7]; Vero, 24 h): 2250 µM
IC90 (VSV-GFP [7]; Vero, 24 h): > 3000 µM

Nc1nc2c(ncn2[C@@H]2O[C@H](CO)[C@@H](O)[C@H]2O)c(=O)[nH]1 [guanosine]
Excess of physiological GTP levels [8]: at least 4 fold
Effect on virus replication when used alone (VSV-GFP or SeV-GFP [9]): no significant effect on virus replication
Neutralizing effect on antiviral activity of RBV (VSV-GFP or SeV-GFP [9]): clear (almost 100%) neutralizing effect on RBV
